Converted amounts (≈) assume the structure as drawn. Read-outs that look alike come from different tables or passages of the source.
Assays:
Experiment in all cases: MIC on clinically isolated bacteria
Format in all cases: cell-based
[1] = test system: Pseudomonas aeruginosa W13
Text: (§1) Twenty-five strains of clinically isolated Acinetobacter baumannii and twenty-seven strains of Pseudomonas aeruginosa were respectively selected and used to determine the minimum inhibitory concentration (MIC) of the compounds by micro-liquid dilution method according to the Institute of Clinical and Laboratory Standard (CLSI) requirements.

[2] = test system: Pseudomonas aeruginosa W27
Text: as §1

[3] = test system: Pseudomonas aeruginosa W6
Text: as §1

[4] = test system: Acinetobacter baumannii C270
Text: as §1

[5] = test system: Pseudomonas aeruginosa W32
Text: as §1

Aeruginosa ATCC27853 = conditions: Pseudomonas aeruginosa
Text: as §1

[6] = test system: Pseudomonas aeruginosa W20
Text: as §1

[7] = test system: Pseudomonas aeruginosa C761
Text: as §1

[8] = test system: Acinetobacter baumannii C281
Text: as §1

[9] = test system: Pseudomonas aeruginosa W42
Text: as §1

[10] = test system: Acinetobacter baumannii C315
Text: as §1

[11] = test system: Acinetobacter baumannii C319
Text: as §1

[12] = test system: Pseudomonas aeruginosa C745
Text: as §1

[13] = test system: Pseudomonas aeruginosa C762
Text: as §1

[14] = test system: Acinetobacter baumannii C332
Text: as §1

[15] = test system: Acinetobacter baumannii C333
Text: as §1

[16] = test system: Acinetobacter baumannii C313
Text: as §1

[17] = test system: Pseudomonas aeruginosa C763
Text: as §1

[18] = test system: Pseudomonas aeruginosa W47
Text: as §1

[19] = test system: Pseudomonas aeruginosa W35
Text: as §1

[20] = test system: Pseudomonas aeruginosa M1
Text: as §1

[21] = test system: Acinetobacter baumannii C330
Text: as §1

[22] = test system: Pseudomonas aeruginosa M4
Text: as §1

[23] = test system: Pseudomonas aeruginosa W9
Text: as §1

[24] = test system: Acinetobacter baumannii C328
Text: as §1

[25] = test system: Pseudomonas aeruginosa W1
Text: as §1

[26] = test system: Acinetobacter baumannii C390
Text: as §1

[27] = test system: Pseudomonas aeruginosa W46
Text: as §1

[28] = test system: Pseudomonas aeruginosa W4
Text: as §1

[29] = test system: Pseudomonas aeruginosa W28
Text: as §1

[30] = test system: Acinetobacter baumannii C394
Text: as §1

[31] = test system: Acinetobacter baumannii C357
Text: as §1

[32] = test system: Acinetobacter baumannii C361
Text: as §1

[33] = test system: Pseudomonas aeruginosa C754
Text: as §1

[34] = test system: Acinetobacter baumannii C181
Text: as §1

[35] = test system: Acinetobacter baumannii C312
Text: as §1

[36] = test system: Pseudomonas aeruginosa W19
Text: as §1

[37] = test system: Pseudomonas aeruginosa W23
Text: as §1

[38] = test system: Acinetobacter baumannii C402
Text: as §1

[39] = test system: Acinetobacter baumannii C395
Text: as §1

[40] = test system: Pseudomonas aeruginosa W24
Text: as §1

What does the source list for `CC1(C)[C@H](NC(=O)/C(=N\O[C@@H](COc2ccc3c(c2)CN(/C(=N\[C@@H]2CCCNC2)N[C@@H]2CCCNC2)C3)C(=O)O)c2csc(N)n2)C(=O)N1OS(=O)(=O)O` [Compound 46]?
MIC ([1]; read-out: MIC): 0.25 µg/mL (≈ 0.315 µM); MIC ([2]; read-out: MIC): 1 µg/mL (≈ 1.26 µM); MIC ([3]; read-out: MIC): 1 µg/mL (≈ 1.26 µM); MIC ([4]; Acinetobacter baumannii C270, read-out: Minimum Inhibitory Concentration (MIC)): 4 µg/mL (≈ 5.04 µM); MIC ([5]; read-out: MIC): 1 µg/mL (≈ 1.26 µM); MIC (Aeruginosa ATCC27853; Aeruginosa ATCC27853, read-out: MIC): 0.5 µg/mL (≈ 0.631 µM); MIC ([6]; read-out: MIC): 1 µg/mL (≈ 1.26 µM); MIC ([7]; read-out: MIC): 0.25 µg/mL (≈ 0.315 µM); MIC ([8]; Acinetobacter baumannii C281, read-out: Minimum Inhibitory Concentration (MIC)): 4 µg/mL (≈ 5.04 µM); MIC ([9]; read-out: MIC): 0.5 µg/mL (≈ 0.631 µM); MIC ([10]; Acinetobacter baumannii C315, read-out: Minimum Inhibitory Concentration (MIC)): 4 µg/mL (≈ 5.04 µM); MIC ([11]; Acinetobacter baumannii C319, read-out: Minimum Inhibitory Concentration (MIC)): 4 µg/mL (≈ 5.04 µM); MIC ([12]; read-out: MIC): 4 µg/mL (≈ 5.04 µM); MIC ([13]; read-out: MIC): 8 µg/mL (≈ 10.1 µM); MIC ([14]; Acinetobacter baumannii C332, read-out: Minimum Inhibitory Concentration (MIC)): 4 µg/mL (≈ 5.04 µM); MIC ([15]; Acinetobacter baumannii C333, read-out: Minimum Inhibitory Concentration (MIC)): 4 µg/mL (≈ 5.04 µM); MIC ([16]; Acinetobacter baumannii C313, read-out: Minimum Inhibitory Concentration (MIC)): 4 µg/mL (≈ 5.04 µM); MIC ([17]; read-out: MIC): 4 µg/mL (≈ 5.04 µM); MIC ([18]; read-out: MIC): 1 µg/mL (≈ 1.26 µM); MIC ([19]; read-out: MIC): 0.25 µg/mL (≈ 0.315 µM); MIC ([20]; read-out: MIC): 1 µg/mL (≈ 1.26 µM); MIC ([21]; Acinetobacter baumannii C330, read-out: Minimum Inhibitory Concentration (MIC)): 4 µg/mL (≈ 5.04 µM); MIC ([22]; read-out: MIC): 1 µg/mL (≈ 1.26 µM); MIC ([23]; read-out: MIC): 1 µg/mL (≈ 1.26 µM); MIC ([24]; Acinetobacter baumannii C328, read-out: Minimum Inhibitory Concentration (MIC)): 4 µg/mL (≈ 5.04 µM); MIC ([25]; read-out: MIC): 1 µg/mL (≈ 1.26 µM); MIC ([26]; Acinetobacter baumannii C390, read-out: Minimum Inhibitory Concentration (MIC)): 4 µg/mL (≈ 5.04 µM); MIC ([27]; read-out: MIC): 0.5 µg/mL (≈ 0.631 µM); MIC ([28]; read-out: MIC): 1 µg/mL (≈ 1.26 µM); MIC ([29]; read-out: MIC): 4 µg/mL (≈ 5.04 µM); MIC ([30]; Acinetobacter baumannii C394, read-out: Minimum Inhibitory Concentration (MIC)): 4 µg/mL (≈ 5.04 µM); MIC ([31]; Acinetobacter baumannii C357, read-out: Minimum Inhibitory Concentration (MIC)): 4 µg/mL (≈ 5.04 µM); MIC ([32]; Acinetobacter baumannii C361, read-out: Minimum Inhibitory Concentration (MIC)): 4 µg/mL (≈ 5.04 µM); MIC ([33]; read-out: MIC): 0.5 µg/mL (≈ 0.631 µM); MIC ([34]; Acinetobacter baumannii C181, read-out: Minimum Inhibitory Concentration (MIC)): 4 µg/mL (≈ 5.04 µM); MIC ([35]; Acinetobacter baumannii C312, read-out: Minimum Inhibitory Concentration (MIC)): 4 µg/mL (≈ 5.04 µM); MIC ([36]; read-out: MIC): 0.5 µg/mL (≈ 0.631 µM); MIC ([37]; read-out: MIC): 0.25 µg/mL (≈ 0.315 µM); MIC ([38]; Acinetobacter baumannii C402, read-out: Minimum Inhibitory Concentration (MIC)): 4 µg/mL (≈ 5.04 µM); MIC ([39]; Acinetobacter baumannii C395, read-out: Minimum Inhibitory Concentration (MIC)): 4 µg/mL (≈ 5.04 µM); MIC ([40]; read-out: MIC): 1 µg/mL (≈ 1.26 µM)

For `CN(C)c1cc(NC(=O)CNC(C)(C)C)c(O)c2c1C[C@H]1C[C@H]3[C@H](N(C)C)C(O)=C(C(N)=O)C(=O)[C@@]3(O)C(O)=C1C2=O` [Tigecycline, reference compound], which MIC [1] is on record?
Its MIC is 8 µg/mL (≈ 13.7 µM).

What about the MIC [2] of the same compound?
Its MIC is 16 µg/mL (≈ 27.3 µM).

What about the MIC [3] of the same compound?
Its MIC is 16 µg/mL (≈ 27.3 µM).

And the MIC ([4]; Acinetobacter baumannii, C270, read-out: Minimum Inhibitory Concentration (MIC))?
The MIC was 1 µg/mL (≈ 1.71 µM).

And the MIC [5]?
Its MIC is 16 µg/mL (≈ 27.3 µM).

And the MIC (Aeruginosa ATCC27853; ATCC27853)?
Its MIC is 8 µg/mL (≈ 13.7 µM).

What about the MIC [6] of the same compound?
Its MIC is 16 µg/mL (≈ 27.3 µM).

And the MIC [7]?
Its MIC is 16 µg/mL (≈ 27.3 µM).

And the MIC ([8]; Acinetobacter baumannii, C281, read-out: Minimum Inhibitory Concentration (MIC))?
Its MIC is 1 µg/mL (≈ 1.71 µM).

What about the MIC [9] of the same compound?
Its MIC is 8 µg/mL (≈ 13.7 µM).

What about the MIC ([10]; Acinetobacter baumannii, C315, read-out: Minimum Inhibitory Concentration (MIC)) of the same compound?
The MIC was 1 µg/mL (≈ 1.71 µM).

What about the MIC ([11]; Acinetobacter baumannii, C319, read-out: Minimum Inhibitory Concentration (MIC)) of the same compound?
The MIC was 1 µg/mL (≈ 1.71 µM).

What about the MIC [12] of the same compound?
The MIC was > 16 µg/mL.

What about the MIC [13] of the same compound?
Its MIC is > 16 µg/mL.

And the MIC ([14]; Acinetobacter baumannii, C332, read-out: Minimum Inhibitory Concentration (MIC))?
The MIC was 1 µg/mL (≈ 1.71 µM).

And the MIC ([15]; Acinetobacter baumannii, C333, read-out: Minimum Inhibitory Concentration (MIC))?
The MIC was 1 µg/mL (≈ 1.71 µM).

What about the MIC ([16]; Acinetobacter baumannii, C313, read-out: Minimum Inhibitory Concentration (MIC)) of the same compound?
Its MIC is 1 µg/mL (≈ 1.71 µM).

And the MIC [17]?
The MIC was > 16 µg/mL.

What about the MIC [18] of the same compound?
The MIC was 16 µg/mL (≈ 27.3 µM).

What about the MIC [19] of the same compound?
The MIC was 8 µg/mL (≈ 13.7 µM).

What about the MIC [20] of the same compound?
Its MIC is 16 µg/mL (≈ 27.3 µM).

What about the MIC ([21]; Acinetobacter baumannii, C330, read-out: Minimum Inhibitory Concentration (MIC)) of the same compound?
Its MIC is 1 µg/mL (≈ 1.71 µM).

And the MIC [22]?
Its MIC is 4 µg/mL (≈ 6.83 µM).

And the MIC [23]?
Its MIC is 16 µg/mL (≈ 27.3 µM).

And the MIC ([24]; Acinetobacter baumannii, C328, read-out: Minimum Inhibitory Concentration (MIC))?
Its MIC is 1 µg/mL (≈ 1.71 µM).

What about the MIC [25] of the same compound?
The MIC was 16 µg/mL (≈ 27.3 µM).

What about the MIC ([26]; Acinetobacter baumannii, C390, read-out: Minimum Inhibitory Concentration (MIC)) of the same compound?
Its MIC is 1 µg/mL (≈ 1.71 µM).

What about the MIC [27] of the same compound?
Its MIC is 8 µg/mL (≈ 13.7 µM).

And the MIC [28]?
Its MIC is 8 µg/mL (≈ 13.7 µM).

What about the MIC [29] of the same compound?
The MIC was > 16 µg/mL.

What about the MIC ([30]; Acinetobacter baumannii, C394, read-out: Minimum Inhibitory Concentration (MIC)) of the same compound?
The MIC was 1 µg/mL (≈ 1.71 µM).

And the MIC ([31]; Acinetobacter baumannii, C357, read-out: Minimum Inhibitory Concentration (MIC))?
The MIC was 1 µg/mL (≈ 1.71 µM).

What about the MIC ([32]; Acinetobacter baumannii, C361, read-out: Minimum Inhibitory Concentration (MIC)) of the same compound?
The MIC was 1 µg/mL (≈ 1.71 µM).

And the MIC [33]?
Its MIC is 8 µg/mL (≈ 13.7 µM).

What about the MIC ([34]; Acinetobacter baumannii, C181, read-out: Minimum Inhibitory Concentration (MIC)) of the same compound?
The MIC was 1 µg/mL (≈ 1.71 µM).

What about the MIC ([35]; Acinetobacter baumannii, C312, read-out: Minimum Inhibitory Concentration (MIC)) of the same compound?
The MIC was 1 µg/mL (≈ 1.71 µM).

And the MIC [36]?
The MIC was 8 µg/mL (≈ 13.7 µM).

And the MIC [37]?
The MIC was 16 µg/mL (≈ 27.3 µM).

What about the MIC ([38]; Acinetobacter baumannii, C402, read-out: Minimum Inhibitory Concentration (MIC)) of the same compound?
Its MIC is 1 µg/mL (≈ 1.71 µM).

What about the MIC ([39]; Acinetobacter baumannii, C395, read-out: Minimum Inhibitory Concentration (MIC)) of the same compound?
Its MIC is 1 µg/mL (≈ 1.71 µM).

And the MIC [40]?
The MIC was 16 µg/mL (≈ 27.3 µM).

Reference: patent publication US11459323B2, “Monocyclic β-lactam compound for treating bacterial infection” (MEDSHINE DISCOVERY INC., priority 2018, dated 2022)
